Reference: US12295929B2, “Intravenous baclofen formulations and treatment methods” (Allaysis, LLC, priority 2015, dated 2025)

Key:
[1] = Randomized, open-label, 2-way crossover pharmacokinetics and bioavailability study of oral vs intravenous baclofen; type: in vivo, human; settings: for Cmax: healthy human volunteers; for Cmax / AUC: plasma; for Cmax / AUC0-∞/Dose / AUC: mean ± SD; for AUC: human
Procedure: Twelve healthy human volunteers were recruited. The volunteers were medication free for 48 hours before, during, and 24 hours after the administration of the study drug.
The 12 volunteers participated in a randomized, open-label, 2-way crossover study to compare the pharmacokinetics and bioavailability of oral baclofen with an intravenous baclofen formulation. The oral formulation was a 10 mg baclofen tablet. A single intravenous dose of 5 mg was administered over 15 minutes, using the commercially available 2 mg/mL intrathecal baclofen formulation (Lioresal Intrathecal). Blood samples (6 mL) for the measurement of plasma concentrations of baclofen were collected in blood collection tubes containing K2 ethylenediaminetetraacetic acid at the following times: prior to dosing; at 5, 15, and 30 minutes; and at 1, 2, 4, 6, 8, 10, 12, and 24 hours after drug administration.
Study plasma samples were prepared by adding 50 μL of a 500 μg/mL levetiracetam solution (internal standard) to 250 μL of K2 ethylenediaminetetraacetic acid (EDTA) human plasma. Baclofen and the internal standard were extracted from plasma by precipitating the protein with methanol and drying it under nitrogen at approximately 40° C. The dried residues were reconstituted in 300 μL of a mobile phase consisting of 20 mM ammonium acetate—methanol (75:25) solution. After 1 minute of vortex mixing, the reconstituted sample solution was filtered and injected onto the high-performance liquid chromatograph-mass spectrometer system. Standard curve samples over a range of 20 to 400 ng/mL baclofen and quality control samples containing 30 (low), 80 (medium), and 240 ng/mL (high) baclofen were prepared and analyzed in triplicate along with the study samples. The assay was linear over the range 20-400 ng/mL with a lower limit of quantification of 20 ng/mL.
Baclofen concentration—time data were analyzed using a noncompartmental pharmacokinetic approach with Phoenix software (version 6.2; Pharsight Corporation, Mountain View, CA). The terminal rate constant (λz) was determined from the slope of the terminal log-linear portion of the plasma concentration—time curve, and the terminal half-life (t1/2) was calculated as ln 2/(λz). Maximum plasma concentrations (Cmax) and time to maximum concentration (Tmax) were determined by direct observation of the data. The area under the concentration-time curve to the last nonzero plasma concentration (Clast) that was above half the lower limit of quantification (10 ng/mL) was calculated by the trapezoidal rule and reported as AUClast. The area under the concentration-time curve extrapolated to infinity (AUC0-∞) was calculated as AUClast+(Clast/λz). Mean and standard deviation values for the parameters were also obtained using the descriptive statistics tool in Phoenix version 6.2. A paired t-test was used to determine if statistical differences existed in log normalized, dose-adjusted area under the curve between oral and intravenous arms.

[2] = cited from earlier work

NCC(CC(=O)O)c1ccc(Cl)cc1 (racemic) [Baclofen, 4-amino-3-(4-chlorophenyl) butanoic acid]
time point of observed maximum baclofen concentration ([1]; 5 mg IV over 15 minutes): 5 min
Cmax ([1]; 5 mg IV over 15 minutes): 313 ng/mL
AUC0-∞/Dose ([1]; 5 mg IV): 141 ± 33 ng·h/mL/mg
Cmax ([1]; 10 mg oral tablet): 176 ng/mL
Tmax ([1]; 10 mg oral tablet, median (min, max)): 1 h
AUC0-∞/Dose ([1]; 10 mg oral): 102 ± 23 ng·h/mL/mg
AUC ([1]; 5 mg IV): 593 ± 111 ng·h/mL
AUC ([1]; 10 mg oral): 878 ± 199 ng·h/mL
solubility in water [2]: slightly soluble
